According to patent EP1656945A1, “Pharmaceutical composition comprising oligoarginine” (THE BOARD OF TRUSTEES OF THE LELAND STANFORD JUNIOR …, priority 1999, dated 2006):

Assays:
rat VSMC = experiment: Stimulation of VSMC with interferon-γ and LPS, dependence of NO2 production on cytokine and L-arginine; type: cell-based; settings: extracellular L-arginine over the range of 0 to 10mM, IFN-γ (100U/ml) and LPS (100µg/ml) 24 hours
Experimental: (§1) Rat VSMCs were prepared from the media layer of thoracic aorta of Sprague-Dawley rats by the explant method. The cells were cultured in Dulbecco's modified Eagle's medium (DMEM, Gibco BRL, Gaithersburg, MD) containing 10% fetal calf serum, 100U/ml penicillin and 100µg/ml streptomycin at 37°C under a humidified atmosphere containing 5% CO2. After subconfluent growth, cells were cultured with MEM Select Amine Kit (Gibco BRL, Gaithersburg, MD) to be treated by specific concentrations of extracellular free L-arginine. Experiments were performed using cultured cells at passage levels of 5-10.
Extracellular NO production was measured as its stable oxidative metabolite, nitrite (NO2). […] Values of NO2 production were corrected with relative cell count assessed by a cell proliferation kit II (XTT) (Boeheringer Mannheim, Germany).
Cells were plated at a density of 5 × 10^3 per well into 96-well plates. […] After 24 hours of incubation, the cells were then treated with a mixture of IFN-γ (100U/ml) and LPS (100µg/ml) in the medium containing the same dose of L-arginine for another 24 hours, and nitrite (NO2) accumulation in the culture medium was quantified.
No detectable NO2 was measured in the medium of non-stimulated VSMC. When cells were stimulated with a mixture of IFN-γ (100U/ml) and LPS ([…]), a significant amount of NO2 was detected in the medium (14.7 ± 0.3 µM / 10^5 cells / 24 hours). […]

cytokine-stimulated VSMC = experiment: Effect of arginine oligomers on NO production (NO2, Griess reaction) in cytokine-stimulated VSMC; type: cell-based, rat
Experimental: as §1
Extracellular NO production was measured as its stable oxidative metabolite, nitrite (NO2). At the end of each incubation, samples of the medium (80µl) were collected, and NO2 measurement was performed using the Griess reaction facilitated by a commercial colorimetric assay (Cayman Chemical, Ann Arbor, MI). Values of NO2 production were corrected with relative cell count assessed by a cell proliferation kit II (XTT) (Boeheringer Mannheim, Germany).
Subconfluent cells were pre-incubated with medium containing 100µM arginine for 24 hours. […] After translocation, the cells were incubated with a mixture of IFN-γ (100U/ml) and LPS (100µg/ml) in medium containing 100µM L-arginine for another 24 hours. In some experiments, L-NMMA (1mM), a nitric oxide synthase inhibitor, was added to the medium.

[1] = tested on: rabbit carotid artery segment; experiment: Ex vivo translocation of biotin-labeled peptides into carotid artery segments; parameters: species or system New Zealand white rabbits; settings: reincubated in DMEM with 10% FBS; for positive staining (internalized biotin): day 5 after exposure (10.0 µM, 30 minutes)
Experimental: After incubation with biotin labeled oligomer, vascular segments were washed, then frozen in OCT compound (Miles Scientific). Frozen sections, 5 µm thick, were fixed with acetone for 10 minutes. Internalized biotin was detected using the staining procedure described in Example 2. Methyl green was used for nuclear counter staining.
To quantify the efficiency of nuclear translocation, the numbers of both DAB positive nuclei and total nuclei were counted in the intima and media separately at X400 magnification with a video image analysis system (Automatrix). The frequency of nuclear translocation was expressed as the percent staining of nuclei, defined as the ratio of the number of DAB positive nuclei to that of all nuclei, in the intima and media. Each protocol was repeated 4 times.
Both carotid artery and jugular vein segments of male New Zealand white rabbits were used. To test the dose dependence of R7 translocation, vascular segments were incubated for 30 minutes with either bL-R7 or bD-R7 solution (0.1, 1.0, and 10.0 µM) in serum-free Dulbecco's minimal essential medium (DMEM) (Gibco BRL). To test the incubation time dependence, vascular segments were incubated with 10.0 µM of biotin labeled R7 solution for 10 seconds, 60 seconds, 5 minutes, 10 minutes, and 30 minutes. Furthermore, to determine the ability of R7 to penetrate through the vessel wall, vascular segments were ligated one end, R7 containing medium was instilled, and the other end ligated so as to expose only the luminal surface to R7. The luminal surface of the vascular segment was exposed to bL-R7 or bD-R7 (10.0 µM) for 30 minutes. To test the temperature dependence of translocation, vascular segments were incubated with 10.0 µM of biotin labeled R7 solutions at 37°C or 4°C. To determine the disappearance time course of translocated R7. vascular segments were incubated with biotin labeled R7 solutions (10.0 µM) at 37°C for 30 minutes, and then reincubated in DMEM with 10% FBS up to 5 days. Vascular segments were harvested at 1, 2 and 5 days after initial incubation.

[2] = tested on: human umbilical vein endothelial cells (ECV304); experiment: In vitro translocation of biotin-labeled peptides into endothelial cells; type: cell-based; settings: control treatments, 30 minutes incubation (peptides 0.1, 1.0, and 10.0 µM)
Experimental: In the studies described below, transmembrane transport and cellular uptake of oligomers was assessed by incubating cells or tissue with biotin-oligomer conjugates, followed by treatment with horseradish peroxidase (HRP)-conjugated streptavidin and subsequent incubation with DAB (3,3'-diaminobenzidine), a substrate of the enzyme which produces a highly colored product.
Spontaneously transformed human umbilical vein endothelial cells (ECV304, ATCC) were cultured in medium M199 (Irvine Scientific) containing 10% fetal bovine serum (FBS), 100 IU/ml penicillin and 100 µg/ml of streptomycin (Gibco BRL). Confluent cells were washed and placed in serum-free medium. After 2 hours, the cells were incubated in presence of biotin labeled peptides, as bL-R7, or bD-R7, or bL-K7 (0.1, 1.0, and 10.0 µM). After 30 minutes of incubation, cells were washed 3 times with phosphate-buffered saline (PBS), fixed in ethanol/acetone; washed in PBS; incubated for 30 minutes with peroxidase suppressor (ImmunoPure, Pierce) to block endogenous peroxidase activity; and then incubated with 5 µg/ml of horse-radish peroxidase (HRP) conjugated strepavidin (Pierce) for 30 minutes. Substrate of HRP, diaminobenzidine (DAB, Sigma), was added to the cells. The reaction was terminated by washing in distilled water after a 60-second incubation. This experiment was repeated 3 times.

`N=C(N)NCCC[C@H](N)C(=O)O` [L-arginine] was tested, and the “NO2 synthesis by cytokine stimulated VSMC” value (rat VSMC) was “progressive increase in NO2 synthesis”, the NO biosynthesis (cytokine-stimulated VSMC; 1 mM for 5 minutes (data not shown)) was “did not significantly increase NO biosynthesis” and the “elevation of NO production” value (cytokine-stimulated VSMC; high concentrations, up to 1mM) was “not observed”.
`N=C(N)NCCC[C@@H](NC(=O)[C@@H](CCCNC(=N)N)NC(=O)[C@@H](CCCNC(=N)N)NC(=O)[C@@H](CCCNC(=N)N)NC(=O)[C@@H](CCCNC(=N)N)NC(=O)[C@@H](CCCNC(=N)N)NC(=O)[C@@H](CCCNC(=N)N)NC(=O)CCCC[C@@H]1SC[C@@H]2NC(=O)N[C@@H]21)C(=O)O` [bD-r7] was tested, and the “positive staining (internalized biotin)” value [1] was “No significant positive staining was observed” and the “residual nuclear biotin in endothelial and medial cells” value ([1]; days 1 and 2 after exposure (10.0 µM, 30 minutes)) was “greater in vascular segments treated with bD-r7 than those treated with bL-R7”.
For `N=C(N)NCCC[C@H](NC(=O)[C@H](CCCNC(=N)N)NC(=O)[C@H](CCCNC(=N)N)NC(=O)[C@H](CCCNC(=N)N)NC(=O)[C@H](CCCNC(=N)N)NC(=O)[C@H](CCCNC(=N)N)NC(=O)[C@H](CCCNC(=N)N)NC(=O)CCCC[C@@H]1SC[C@@H]2NC(=O)N[C@@H]21)C(=O)O` [bR7, biotin-labeled heptaarginine], the “positive staining (internalized biotin)” value [1] was “No significant positive staining was observed”.
For `O=C(O)CCCC[C@@H]1SC[C@@H]2NC(=O)N[C@@H]21` [biotin], the internalized biotin signals [2] was “No internalized biotin signals were detected”.
